Blank lines part the entries; values can stand above or below the compound they belong to. Calls of active or inactive are those of the source. The rule behind the calls is not given here.
Key:
[1] = system: Huh-7.5; assay: Effect on PAPD5 expression in human Huh7.5 cells at 1 uM incubated for 24 hrs by Western blot analysis; type: functional, cell-based
[2] = system: Huh-7.5; assay: Effect on actin expression in human Huh7.5 cells at 1 uM incubated for 24 hrs by Western blot analysis; type: functional, cell-based
[3] = system: Huh-7.5; assay: Effect on PAPD7 expression in human Huh7.5 cells at 1 uM incubated for 24 hrs by Western blot analysis; type: functional, cell-based
[4] = system: HepG2.2.15; assay: Inhibition of 2.1 to 3.5 kb HBV mRNA accumulation in human HepG2.2.15 cells at 1 to 2 nM treated for 5 days by northern blot analysis; type: functional, cell-based; conditions: Hepatitis B virus, dose 1-2 nM, time 5.0 day
[5] = Inhibition HBsAg secretion in human HepG2.2.15 cells treated for 3 days followed by medium replacement without compound measured after 2 days by CLIA; type: functional, cell-based; conditions: HepG2 2.2.15
[6] = system: Huh-7.5; assay: Effect on PAPD5 expression in human Huh7.5 cells at 250 nM incubated for 24 hrs by Western blot analysis; type: functional, cell-based
[7] = system: Huh-7.5; assay: Effect on PAPD7 expression in human Huh7.5 cells at 250 nM incubated for 24 hrs by Western blot analysis; type: functional, cell-based
[8] = system: Hepatovirus A; assay: Inhibition of replication of Hepatitis A virus expressing 18f-NLuc infected in human Huh7.5 cells treated for 48 hrs by luminescence based analysis; type: functional, organism-based; conditions: for IC50: Huh7.5, 48 h
[9] = Cytotoxicity against human Huh7.5 cells; type: toxicity, cell-based, Huh-7.5
[10] = target: T1, Protein cereblon/Terminal nucleotidyltransferase 4B (Homo sapiens) (UniProt Q96SW2+Q8NDF8); assay: PROTAC activity at CRBN/PAPD5 in human Huh7.5 cells assessed as protein degradation at 10 uM incubated for 24 hrs by Western blot analysis; type: cell-based
T1 sequence (Q8NDF8 whole entry, looked up): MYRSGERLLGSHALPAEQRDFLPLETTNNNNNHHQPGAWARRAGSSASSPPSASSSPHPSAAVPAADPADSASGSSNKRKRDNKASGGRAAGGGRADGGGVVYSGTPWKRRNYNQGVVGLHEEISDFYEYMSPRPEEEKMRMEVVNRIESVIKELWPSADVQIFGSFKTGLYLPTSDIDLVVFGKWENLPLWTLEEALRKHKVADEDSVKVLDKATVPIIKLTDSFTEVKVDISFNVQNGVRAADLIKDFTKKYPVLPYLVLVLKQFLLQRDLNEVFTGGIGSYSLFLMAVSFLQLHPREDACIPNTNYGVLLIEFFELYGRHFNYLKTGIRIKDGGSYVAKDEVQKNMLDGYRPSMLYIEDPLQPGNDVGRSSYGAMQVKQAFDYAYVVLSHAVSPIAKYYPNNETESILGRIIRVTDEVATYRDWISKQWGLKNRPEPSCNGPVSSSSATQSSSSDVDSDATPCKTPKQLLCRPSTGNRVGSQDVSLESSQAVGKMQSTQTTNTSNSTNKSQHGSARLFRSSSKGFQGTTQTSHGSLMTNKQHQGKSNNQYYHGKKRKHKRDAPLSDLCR
T1 sequence (Q96SW2 whole entry, looked up): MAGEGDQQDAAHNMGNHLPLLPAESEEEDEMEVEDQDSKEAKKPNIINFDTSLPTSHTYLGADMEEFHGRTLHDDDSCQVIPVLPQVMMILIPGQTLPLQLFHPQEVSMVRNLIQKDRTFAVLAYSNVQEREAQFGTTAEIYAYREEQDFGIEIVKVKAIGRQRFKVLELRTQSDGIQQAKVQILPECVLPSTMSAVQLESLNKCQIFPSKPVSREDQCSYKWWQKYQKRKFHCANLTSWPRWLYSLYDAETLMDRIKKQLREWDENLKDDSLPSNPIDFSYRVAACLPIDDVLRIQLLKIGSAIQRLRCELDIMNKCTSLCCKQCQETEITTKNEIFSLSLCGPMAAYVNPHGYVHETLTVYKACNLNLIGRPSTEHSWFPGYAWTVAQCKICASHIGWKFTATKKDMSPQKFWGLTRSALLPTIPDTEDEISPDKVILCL

[11] = system: Huh-7.5; assay: Effect on actin expression in human Huh7.5 cells at 10 uM incubated for 24 hrs by Western blot analysis; type: functional, cell-based
[12] = system: Huh-7.5; assay: Effect on PAPD7 expression in human Huh7.5 cells at 10 uM incubated for 24 hrs by Western blot analysis; type: functional, cell-based
[13] = target: T1, Protein cereblon/Terminal nucleotidyltransferase 4B (Homo sapiens); assay: PROTAC activity at CRBN/PAPD5 in human Huh7.5 cells assessed as protein degradation at 10 uM incubated for 24 hrs in presence of epoxomicin by Western blot analysis; type: cell-based
[14] = system: HepG2.2.15; assay: Inhibition of 2.1 to 3.5 kb HBV mRNA accumulation in human HepG2.2.15 cells at 7.5 to 15 uM treated for 5 days by northern blot analysis; type: functional, cell-based; conditions: Hepatitis B virus, dose 7.5-15 µM, time 5.0 day
[15] = Inhibition HBsAg secretion in human Huh-7 cells harboring pHBV1.3 treated for 2 days followed by replacement of medium containing compound measured after 4 days by CLIA; type: functional, cell-based
[16] = Cytotoxicity against human Huh-7 cells assessed as cell viability by Cell Titer Glo assay; type: toxicity, cell-based

IC50 [5]: 0.001 µM
Structure (SMILES): COCCCOc1cc2c(cc1OC)-c1cc(=O)c(C(=O)O)cn1[C@H](C(C)C)C2
Activity [1]: inactive | Activity [2]: inactive | Activity [3]: inactive | inhibition [4]: Active

Structure (SMILES): CC[C@H](C)[C@H](NC(=O)[C@H]([C@@H](C)CC)N(C)C(C)=O)C(=O)N[C@H](C(=O)N[C@@H](CC(C)C)C(=O)[C@@]1(C)CO1)[C@@H](C)O
Activity [6]: inactive | Activity [7]: inactive

Structure (SMILES): COc1cc2c(cc1OCCCNC(=O)CCOCCOCCOCCOCCOCCOCCNc1cccc3c1C(=O)N(C1CCC(=O)NC1=O)C3=O)C[C@@H](C(C)C)n1cc(C(=O)O)c(=O)cc1-2 (some centres not stated)
inhibition [8]: Dose-Dependent Effect | IC50 [8]: 0.277 µM | CC50 [9]: > 50 µM | Activity [10]: Active | Activity [11]: inactive | Activity [12]: inactive | Activity [13]: inactive | inhibition [14]: Active | IC50 [5]: 16.2 µM | IC50 [15]: 10.6 µM | CC50 [16]: > 50 µM

IC50 [8]: 0.576 µM
Structure (SMILES): COc1cc2c(cc1OCCCNC(=O)CCOCCOCCOCCNc1cccc3c1C(=O)N(C1CCC(=O)NC1=O)C3=O)C[C@@H](C(C)C)n1cc(C(=O)O)c(=O)cc1-2 (some centres not stated)
inhibition [8]: Dose-Dependent Effect | CC50 [9]: > 50 µM | inhibition [14]: Active

— ChEMBL document CHEMBL5579812, “"PROTAC" modified dihydroquinolizinones (DHQs) that cause degradation of PAPD-5 and inhibition of hepatitis A virus and hepatitis B virus, in vitro” (Bioorg Med Chem Lett, 2024)
